Assay results published in PubChem BioAssay (NCI).
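Growth conditions: 96-well plates. Treatment: test compound, 48 hours, 5 concentrations. Analysis: linear interpolation between bracketing concentrations; unreached endpoints set to highest concentration. At the TGI there is no net growth.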

What was measured:
Assay in all cases: NCI tumour cell line growth inhibition, 48 h
HCC-2998 colon = system: HCC-2998 colon
MOLT-4 leukemia = system: MOLT-4 leukemia
KM12 colon = system: KM12 colon
IGROV1 ovarian = system: IGROV1 ovarian
BT-549 breast = system: BT-549 breast
EKVX NSCLC = system: EKVX NSCLC
SK-OV-3 ovarian = system: SK-OV-3 ovarian
OVCAR-4 ovarian = system: OVCAR-4 ovarian
SF-539 CNS = system: SF-539 CNS
NCI-H460 lung = system: NCI-H460 lung
HCT-15 colon = system: HCT-15 colon
RXF 393 renal = system: RXF 393 renal
SK-MEL-28 melanoma = system: SK-MEL-28 melanoma
A549 NSCLC = system: A549 NSCLC
SF-295 CNS = system: SF-295 CNS
M14 melanoma = system: M14 melanoma
DU-145 prostate = system: DU-145 prostate
SR leukemia = system: SR leukemia
T-47D breast = system: T-47D breast
RPMI-8226 leukemia = system: RPMI-8226 leukemia
SN12C renal = system: SN12C renal
MDA-N = system: MDA-N
COLO 205 colon = system: COLO 205 colon
UO-31 renal = system: UO-31 renal
CCRF-CEM leukemia = system: CCRF-CEM leukemia
HS 578T breast = system: HS 578T breast
PC-3 prostate = system: PC-3 prostate
TK-10 renal = system: TK-10 renal
LOX IMVI melanoma = system: LOX IMVI melanoma
SW-620 colon = system: SW-620 colon
HL-60(TB) leukemia = system: HL-60(TB) leukemia
MALME-3M melanoma = system: MALME-3M melanoma
ACHN renal = system: ACHN renal
OVCAR-5 ovarian = system: OVCAR-5 ovarian
OVCAR-8 ovarian = system: OVCAR-8 ovarian
SF-268 CNS = system: SF-268 CNS
HT29 colon = system: HT29 colon
K-562 leukemia = system: K-562 leukemia
SK-MEL-5 melanoma = system: SK-MEL-5 melanoma
SNB-19 CNS = system: SNB-19 CNS
HOP-62 NSCLC = system: HOP-62 NSCLC
MCF7 breast = system: MCF7 breast
NCI-H226 lung = system: NCI-H226 lung
NCI/ADR-RES ovarian = system: NCI/ADR-RES ovarian
OVCAR-3 ovarian = system: OVCAR-3 ovarian
NCI-H522 lung = system: NCI-H522 lung
MDA-MB-231 breast = system: MDA-MB-231 breast
SK-MEL-2 melanoma = system: SK-MEL-2 melanoma
NCI-H23 lung = system: NCI-H23 lung
SNB-75 CNS = system: SNB-75 CNS
HCT-116 colon = system: HCT-116 colon
786-0 renal = system: 786-0 renal
MDA-MB-435 = system: MDA-MB-435
UACC-257 melanoma = system: UACC-257 melanoma
U251 CNS = system: U251 CNS

CCCC(C)c1c(Cl)nc(Cl)nc1Cl (stereo not given)
TGI (HCC-2998 colon): 29.9 µM
TGI (MOLT-4 leukemia): > 100 µM
TGI (KM12 colon): 10.2 µM
TGI (IGROV1 ovarian): 36.4 µM
TGI (BT-549 breast): 5.16 µM
TGI (EKVX NSCLC): 36.9 µM
TGI (SK-OV-3 ovarian): 43.8 µM
TGI (OVCAR-4 ovarian): 44.7 µM
TGI (SF-539 CNS): 19 µM
TGI (NCI-H460 lung): 45.6 µM
TGI (HCT-15 colon): 64.4 µM
TGI (RXF 393 renal): 22.4 µM
TGI (SK-MEL-28 melanoma): 13.4 µM
TGI (A549 NSCLC): 29.4 µM
TGI (SF-295 CNS): 37 µM
TGI (M14 melanoma): 3.92 µM
TGI (DU-145 prostate): 28.3 µM
TGI (SR leukemia): > 100 µM
TGI (T-47D breast): 29 µM
TGI (RPMI-8226 leukemia): > 100 µM
TGI (SN12C renal): 48 µM
TGI (MDA-N): 21 µM
TGI (COLO 205 colon): 15.8 µM
TGI (UO-31 renal): 34.7 µM
TGI (CCRF-CEM leukemia): > 100 µM
TGI (HS 578T breast): > 100 µM
TGI (PC-3 prostate): 46 µM
TGI (TK-10 renal): 37.4 µM
TGI (LOX IMVI melanoma): > 100 µM
TGI (SW-620 colon): > 100 µM
TGI (HL-60(TB) leukemia): > 100 µM
TGI (MALME-3M melanoma): 55.6 µM
TGI (ACHN renal): 15.5 µM
TGI (OVCAR-5 ovarian): 39 µM
TGI (OVCAR-8 ovarian): 55.9 µM
TGI (SF-268 CNS): > 100 µM
TGI (HT29 colon): 26.5 µM
TGI (K-562 leukemia): > 100 µM
TGI (SK-MEL-5 melanoma): 13.9 µM
TGI (SNB-19 CNS): 35.6 µM
TGI (HOP-62 NSCLC): 20.6 µM
TGI (MCF7 breast): 26.3 µM
TGI (NCI-H226 lung): 18.7 µM
TGI (NCI/ADR-RES ovarian): > 100 µM
TGI (OVCAR-3 ovarian): 21.3 µM
TGI (NCI-H522 lung): 5.32 µM
TGI (MDA-MB-231 breast): > 100 µM
TGI (SK-MEL-2 melanoma): > 100 µM
TGI (NCI-H23 lung): 18 µM
TGI (SNB-75 CNS): 27.5 µM
TGI (HCT-116 colon): 3.66 µM
TGI (786-0 renal): 12.7 µM
TGI (MDA-MB-435): 21 µM
TGI (UACC-257 melanoma): 26.2 µM
TGI (U251 CNS): 21.2 µM
